Source: PMC10605449 (Biosensors, 2023)
Changes are numbered by the printed parent chain.

Legend:
Assay type in all cases: binding
MARK3(48-370) = target: T1, MARK3(48-370) (Homo sapiens, UniProt P27448); experiment: SPR, pure MARK3(48-370) WT immobilized by amine coupling, GSK461364A injected
T1 construct: The purified His6-TEV-MARK3(48-370) was immobilized using the same approach as GST-NUAK2(1-628); HRV3C site (C, cleaved yes); AviTag (C, cleaved yes); made in house
T1 sequence (P27448 48-370): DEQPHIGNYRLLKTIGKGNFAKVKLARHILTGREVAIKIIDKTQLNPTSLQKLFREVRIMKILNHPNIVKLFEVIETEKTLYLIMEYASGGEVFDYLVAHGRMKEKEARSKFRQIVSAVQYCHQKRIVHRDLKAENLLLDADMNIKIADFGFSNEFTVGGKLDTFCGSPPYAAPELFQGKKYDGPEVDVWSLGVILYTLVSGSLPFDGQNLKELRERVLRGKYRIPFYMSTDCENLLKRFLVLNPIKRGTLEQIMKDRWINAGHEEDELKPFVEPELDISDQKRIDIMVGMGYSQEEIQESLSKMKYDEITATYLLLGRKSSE
Experimental: (§1) The interaction analysis cycles consisted of 140 s of sample injection followed by 350 to 600 s of running buffer flow. The running buffer was composed of 20 mM HEPES pH 7.4, 100 mM NaCl, 5 mM MgCl2, 1 mM EGTA, 1 mM DTT, 0.05% Tween-20, and 2% DMSO, and the experiment was performed at 15 °C.
All sensorgrams were processed by first subtracting the binding response recorded from the control surface (reference spot, where only the avidin protein is immobilized), followed by subtraction of the buffer blank injection from the reaction spot. All datasets were fitted to a simple 1:1 Langmuir interaction model to determine the kinetic rate constants, and the interaction affinity was additionally calculated at a steady state when applicable. In cases where small molecules were present during the assay, a DMSO solvent correction (1–3%) was applied to account for variations in bulk signal and to achieve high-quality data. The experiments with immobilized purified proteins were performed on a Biacore 4000 (Cytiva, Uppsala, Sweden), and the interaction was evaluated using the provided Biacore 4000 evaluation software, while the experiments with soluble cell lysates on a Biacore T200 (Cytiva, Uppsala, Sweden) used the provided Biacore T200 evaluation software. All SPR experiments were performed in duplicate.

MARK3(48-370) Mutant 4 = target: T2, MARK3(48-370) Mutant 4 (Homo sapiens, UniProt P27448, A68G/E139D/F199L/F67Y/I62L/L128I/L130I/N66T/T204H/V116I/V205Q); experiment: SPR Extract2Chip, cellular biotinylated MARK3 Mutant 4, GSK461364A injected; settings: 15 °C
T2 construct: made in house; host or cells: E. coli Rosetta 2, co-expressed with BirA; soluble lysate used without purification
T2 sequence (P27448 48-370 I62L/N66T/F67Y/A68G/V116I/L128I/L130I/E139D/F199L/T204H/V205Q): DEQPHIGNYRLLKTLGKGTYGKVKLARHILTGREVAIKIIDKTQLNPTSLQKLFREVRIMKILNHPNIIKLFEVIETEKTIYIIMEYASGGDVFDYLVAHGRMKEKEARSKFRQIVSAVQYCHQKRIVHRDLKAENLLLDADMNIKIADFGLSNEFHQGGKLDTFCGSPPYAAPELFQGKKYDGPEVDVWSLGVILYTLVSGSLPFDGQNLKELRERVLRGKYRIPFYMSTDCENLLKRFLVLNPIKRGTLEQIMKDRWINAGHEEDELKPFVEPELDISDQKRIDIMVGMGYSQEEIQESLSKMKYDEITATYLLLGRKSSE
Experimental: (§2) The cellular biotinylation of MARK3(48-370) kinase domain mutants followed the same approach as described for CypD. The 6 different mutants were expressed in Rosetta^TM 2 in PB media, and induced with 100 µM IPTG overnight at 18 °C.
(§3) The cellular biotinylated MARK3 NUAK2-like mutants were immobilized using the approach described in Section 2.5.2. The soluble cell lysates were diluted to a final concentration of 200 µg/mL, then injected over the neutravidin surfaces for 200 or 1400 s in order to reach 1000 to 2300 RU.
as §1
(§4) All sensorgrams were processed by first subtracting the binding response recorded from the control surface (reference spot, where only the avidin protein is immobilized), followed by subtraction of the buffer blank injection from the reaction spot. All datasets were fitted to a simple 1:1 Langmuir interaction model to determine the kinetic rate constants, and the interaction affinity was additionally calculated at a steady state when applicable. […]

MARK3(48-370) Mutant 3 = target: T3, MARK3(48-370) Mutant 3 (Homo sapiens, UniProt P27448, A68G/E139D/F67Y/I62L/L128I/L130I/N66T/T204H/V116I/V205Q); experiment: SPR Extract2Chip, cellular biotinylated MARK3 Mutant 3, GSK461364A injected; settings: 15 °C
T3 construct: made in house; host or cells: E. coli Rosetta 2, co-expressed with BirA; soluble lysate used without purification
T3 sequence (P27448 48-370 I62L/N66T/F67Y/A68G/V116I/L128I/L130I/E139D/T204H/V205Q): T2 sequence (P27448 48-370 I62L/N66T/F67Y/A68G/V116I/L128I/L130I/E139D/F199L/T204H/V205Q) with L152F
Experimental: as §2, §3, §1, §4

For C[C@@H](Oc1cc(-n2cnc3ccc(CN4CCN(C)CC4)cc32)sc1C(N)=O)c1ccccc1C(F)(F)F [GSK461364A], the “Binding behavior” value (MARK3(48-370)) was “transient binding behavior”, the “kd ± SD” value (MARK3(48-370) Mutant 4) was 0.029 ± 0.0028 s⁻¹ and the “kd ± SD” value (MARK3(48-370) Mutant 3) was 0.028 ± 0.003 s⁻¹.
